Data published in PMC10810011 (Expert opinion on drug delivery, 2023).

Columns and labels:
alpha2A adrenergic = molecular target: T1, alpha2A adrenergic (Homo sapiens, UniProt P08913); assay: InVEST radioligand filter binding, alpha2A adrenergic; settings: M13 20 μM, 100 = no effect
T1 sequence (P08913 1-465): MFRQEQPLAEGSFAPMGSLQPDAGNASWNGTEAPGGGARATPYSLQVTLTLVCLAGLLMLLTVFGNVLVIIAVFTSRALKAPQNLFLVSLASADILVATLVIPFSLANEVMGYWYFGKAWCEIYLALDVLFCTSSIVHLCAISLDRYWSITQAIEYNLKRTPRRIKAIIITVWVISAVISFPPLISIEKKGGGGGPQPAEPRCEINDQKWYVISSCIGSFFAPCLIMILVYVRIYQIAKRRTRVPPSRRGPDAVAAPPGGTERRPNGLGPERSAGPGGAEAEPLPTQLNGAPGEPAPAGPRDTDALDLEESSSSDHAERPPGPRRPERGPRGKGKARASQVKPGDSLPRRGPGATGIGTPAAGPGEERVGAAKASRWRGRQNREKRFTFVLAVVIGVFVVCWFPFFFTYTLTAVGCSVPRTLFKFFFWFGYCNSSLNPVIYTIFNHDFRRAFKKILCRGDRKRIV

5-HT3 = molecular target: T2, 5-HT3 (Homo sapiens, UniProt P46098); assay: InVEST radioligand filter binding, ion channel 5-HT3; settings: M13 20 μM, 100 = no effect
T2 sequence (P46098 24-478): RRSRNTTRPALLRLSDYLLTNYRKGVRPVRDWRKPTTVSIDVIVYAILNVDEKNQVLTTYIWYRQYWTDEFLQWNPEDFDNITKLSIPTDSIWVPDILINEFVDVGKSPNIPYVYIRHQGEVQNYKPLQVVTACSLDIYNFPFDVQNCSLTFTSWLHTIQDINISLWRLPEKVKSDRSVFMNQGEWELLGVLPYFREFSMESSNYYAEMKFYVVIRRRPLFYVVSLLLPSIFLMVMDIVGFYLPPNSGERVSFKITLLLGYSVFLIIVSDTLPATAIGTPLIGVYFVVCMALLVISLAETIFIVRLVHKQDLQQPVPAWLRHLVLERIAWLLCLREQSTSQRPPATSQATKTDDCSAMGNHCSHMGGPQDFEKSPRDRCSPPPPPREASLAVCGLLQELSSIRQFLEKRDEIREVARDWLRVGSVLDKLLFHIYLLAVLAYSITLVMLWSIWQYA

HIEC-6 cells = assay: MTT cytotoxicity, 2D HIEC-6; type: cell-based, human; settings: HIEC-6 (normal intestinal), 24 h
[1] = test system: Salmonella typhimurium TA98; assay: Ames test, strain TA98; settings: +S9 or -S9

CCCCCC(CC(=O)CCc1ccc(O)c(OC)c1)SC[C@H](NC(=O)CC[C@H](N)C(=O)O)C(=O)NCC(=O)O (stereo partly shown) [M13, 5-glutathione-6-shogaol]
% Activity Data 1 (alpha2A adrenergic; repetition 1): 92% | % Activity Data 2 (alpha2A adrenergic; repetition 2): 100% | % Activity Data 1 (5-HT3; repetition 1): 98% | % Activity Data 2 (5-HT3; repetition 2): 100% | IC50 (HIEC-6 cells): > 100 µM | number of revertant colonies ([1]; TA98, 156 ~ 5000 μg/plate): did not increase | mutation factor ([1]; TA98, all concentrations 156 ~ 5000 μg/plate): less than 1.6
